# Source: patent US6605424B1, “Method of detecting inhibitors of agonist-specific desensitization” (Duke University, priority 1989, dated 2003)
# No end group written: not given here.
# T1: βAR kinase (Bos taurus, UniProt P21146)
# T1 construct: βAR kinase was purified from bovine cerebral cortex; from tissue; host or cells: bovine cerebral cortex
# T1 sequence (P21146 1-689): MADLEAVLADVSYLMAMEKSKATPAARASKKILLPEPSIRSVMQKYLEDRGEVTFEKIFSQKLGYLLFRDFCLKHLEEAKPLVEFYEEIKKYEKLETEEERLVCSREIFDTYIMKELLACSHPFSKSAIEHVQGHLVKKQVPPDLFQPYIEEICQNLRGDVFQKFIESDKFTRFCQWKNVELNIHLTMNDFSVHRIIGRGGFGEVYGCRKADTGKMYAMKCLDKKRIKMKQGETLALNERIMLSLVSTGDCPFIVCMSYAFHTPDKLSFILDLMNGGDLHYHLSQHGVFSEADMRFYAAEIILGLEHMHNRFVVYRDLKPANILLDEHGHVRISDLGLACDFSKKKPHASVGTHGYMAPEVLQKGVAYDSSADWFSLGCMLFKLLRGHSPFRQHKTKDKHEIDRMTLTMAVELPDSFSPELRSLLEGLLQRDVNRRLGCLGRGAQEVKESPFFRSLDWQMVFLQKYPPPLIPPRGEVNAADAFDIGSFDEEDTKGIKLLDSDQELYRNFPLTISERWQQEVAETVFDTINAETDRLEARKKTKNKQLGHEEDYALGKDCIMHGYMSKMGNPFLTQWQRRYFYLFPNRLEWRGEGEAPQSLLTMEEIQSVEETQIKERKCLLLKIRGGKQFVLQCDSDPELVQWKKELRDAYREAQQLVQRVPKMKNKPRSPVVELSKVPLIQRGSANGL
# Key:
# βAR kinase [1] = target: T1, βAR kinase; experiment: Phosphorylation of purified reconstituted β2ARs by purified βAR kinase (Example II); format: biochemical, bovine
# Procedure: FIG. 7. […] (Inset) Relevant section of a representative autoradiogram. Data are means±SEM of three independent experiments. […] Desensitization was measured as the percent loss of stimulation by 10 μM (−)-isoproterenol of adenylyl cyclase activity in membranes. […] Data are means±SEM of four independent experiments.
# Purified β2ARs were inserted into phosphatidylcholine vesicles by chromatography on Extracti-gel, followed by polyethylene glycol treatment and centrifugation at 280,000×g for 90 min (Cerione et al (1984) Biochemistry 23:4519-4525). Phosphorylation of the reconstituted receptors by purified βAR kinase was done in the presence of 50 μM (−)-isoproterenol as described (Benovic et al (1987) J. Biol. Chem. 262:9026-9032). Subsequently, the samples were subjected to sodium dodecyl sulfate polyacrylamide gel electrophoresis on 10% gels (Laemmli (1970) Nature 227:680-685). The phosphorylated β2ARs were visualized by autoradiography, and the corresponding bands were cut out and their content of ^32P quantified.
# [2] = system: β2ARs in permeabilized A431 cells; experiment: Desensitization of β2ARs in permeabilized A431 cells; format: cell-based, human
# Procedure: Permeabilization of cells was accomplished as follows. Human epidermoid carcinoma A431 cells were grown to about 95% confluence in Dulbecco's modified Eagle's medium supplemented with 10% fetal calf serum. Cells were harvested with collagenase, washed three times with calcium-free phosphate-buffered saline (PBS), then washed twice in 150 mM potassium glutamate/10 mM Hepes/5 mM EGTA/7 mM MgCl2, pH 7.1 (KG buffer), and finally resuspended in KG buffer supplemented with 5 mM glucose and 2 mM ATP (KG-A buffer) at a density of 4×10^7 cells per ml.
# At 4×10^7 cells per ml, about 0.015% digitonin was necessary to achieve permeabilization of >95% cells as assessed by staining with trypan blue. In all experiments, digitonin was added stepwise until >95% of the cells were trypan blue positive.
# [3] = target: protein kinase C and cyclic nucleotide-dependent protein kinases; conditions: cited from earlier work
# protein kinase A = protein kinase A (Homo sapiens, UniProt P17612); experiment: Peptides as substrates for protein kinase A; format: biochemical
# βAR kinase [4] = target: T1, βAR kinase; experiment: Reversal of heparin inhibition of βAR kinase by polycations; format: biochemical, bovine; conditions: read-out: EC50 for reversal of heparin inhibition; in the presence of 1.1 μM heparin
# Procedure: (§1) Urea-treated rod outer segments were phosphorylated with βAR kinase as follows. Urea-treated rod outer segments (˜4 μg of rhodopsin) were incubated with βAR kinase (˜0.1 μg) for 10-15 min at 30° C. in the presence of 40 mM Tris-HCl, pH 7.4, 10 mM NaCl, 5 mM MgCl2, 1.5 mM EDTA, and 65 μM ATP (˜1 cpm/fmol) (total reaction volume was 40 μl). Reactions were stopped by the addition of 40 μl of sodium dodecyl sulfate sample buffer (see below) followed by sodium dodecyl sulfate-polyacrylamide gel electrophoresis. After autoradiography, the phosphorylated rhodopsin bands were excised and counted.
# βAR kinase [5] = target: T1, βAR kinase; experiment: Phosphorylation of rhodopsin (urea-treated rod outer segments) by βAR kinase; format: biochemical, bovine; conditions: read-out: IC50 (concentration of compound which gave 50% inhibition of βAR kinase); rhodopsin as substrate
# Procedure: (§2) βAR kinase was purified from bovine cerebral cortex by modification of procedure of Benovic et al (J. Biol. Chem. (1987) 262:9026-9032). Briefly, 250 g of bovine cerebral cortex were homogenized with a Brinkmann tissue disrupter and centrifuged (40,000×g, 30 min). The supernatant was then precipitated with 13-26% ammonium sulfate. This material was initially chromatographed on a Ultrogel AcA34 column equilibrated with 5 mM Tris-HCl, pH 7.5, 2 mM EDTA, 10 μg/ml leupeptin, 5 μg/ml pepstatin, 10 μg/ml benzamidine, 0.2 mM phenylmethylsulfonyl fluoride (buffer A). The peak activity was diluted with an equal volume of buffer A containing 0.04% Triton X-100 before being applied to a DEAE-Sephacel column. Elution was accomplished with a 0-80 mM NaCl gradient in buffer A containing 0.02% Triton X-100. The peak activity was then applied to a CM-Fractogel column and eluted with a 0-100 mM NaCl gradient in buffer A containing 0.02% Triton X-100. The purified kinase is stable at 4° C. for several months. For these studies the βAR kinase preparations were >75% pure.
# (§3) Rod outer segments were prepared from bovine retinas by stepwise sucrose gradient centrifugation (Wilden et al Biochemistry (1982) 21:3014-3022). Rhodopsin kinase-free rod outer segments were prepared by treatment with 5 M urea (Shichi et al J. Biol. Chem. (1978) 253:7040-7046) and consisted of ˜95% rhodopsin, as assessed by Coomassie Blue staining of sodium dodecyl sulfate-polyacrylamide gels.
# as §1
# Sodium dodecyl sulfate-polyacrylamide gel electrophoresis was performed by the method of Laemmli (Nature (1970) 227:680-685) using 10% homogeneous polyacrylamide slab gels. Sample buffer contained 8% sodium dodecyl sulfate, 10% glycerol, 5% 3-mercaptoethanol, 25 mM Tris-HCl, pH 6.5, and 0.003% bromphenol blue. After electrophoresis, gels were dried with a Bio-Rad gel dryer prior to autoradiography.
# [6] = substrate: CC[C@H](C)[C@H](NC(=O)[C@H](Cc1ccc(O)cc1)NC(=O)[C@H](CC(N)=O)NC(=O)[C@H](CC(C)C)NC(=O)[C@@H]1CCCN1C(=O)[C@@H](NC(=O)[C@H](CCCNC(=N)N)NC(=O)[C@H](CC(C)C)NC(=O)[C@H](CCCCN)NC(=O)[C@H](CCCCN)NC(=O)[C@H](Cc1c[nH]cn1)NC(=O)[C@H](CCC(N)=O)NC(=O)[C@@H](NC(=O)[C@@H](NC(=O)[C@@H](N)C(C)C)[C@@H](C)O)C(C)C)[C@@H](C)O)C(=O)O; experiment: as above; format: biochemical, bovine; conditions: other: rhodopsin as substrate, absence of heparin; 30.0 °C
# Procedure: as §2, with “The peak activity was then applied to a CM-Fractogel column and eluted with a 0-100 mM NaCl gradient in buffer A containing 0.02% Triton X-100. The purified kinase is stable at 4° C. for several months. For these studies the βAR kinase preparations were >75% pure.” left out
# as §3
# Urea-treated rod outer segments were phosphorylated with βAR kinase as follows. […] After autoradiography, the phosphorylated rhodopsin bands were excised and counted. […]
molecule,measurement,setting,value
"CC1CNCCN1S(=O)(=O)c1cccc2cnccc12 (stereo not shown) [Peptide H7, 1-5(isoquinolinesulfonyl)-2-methylpiperazine]",inhibition at 1 µM,βAR kinase [1]; 1 μM,3 ± 4%
same,inhibition at 10 µM,βAR kinase [1]; 10 μM,2 ± 7%
same,"Inhibition of βAR kinase, %",βAR kinase [1]; 100 μM,19 ± 6%
same,inhibition at 100 µM,βAR kinase [1]; 100 μM,~20%
same,"Inhibition of Desensitization, %",[2]; 100 μM,22 ± 14%
same,inhibition at 1 µM,"[2]; Homo sapiens, A-431, 1 μM",0%
same,inhibition at 10 µM,"[2]; Homo sapiens, A-431, 10 μM",7 ± 5%
same,inhibition at 100 µM,"[2]; Homo sapiens, A-431, 100 μM",~20%
same,Ki,[3],~5 µM
QELLCLRRSSSKAYGNGYS [CT-1 (337-355)],substrate for protein kinase A,protein kinase A,serve as substrates for protein kinase A
polylysine,EC50,βAR kinase [4],~2.8 µM
same,IC50,βAR kinase [5],~69 µM
"βAR kinase (Bos taurus) (protein, βAR kinase was purified from bovine cerebral cortex; from tissue; host or cells: bovine cerebral cortex) MADLEAVLADVSYLMAMEKSKATPAARASKKILLPEPSIRSVMQKYLEDRGEVTFEKIFSQKLGYLLFRDFCLKHLEEAKPLVEFYEEIKKYEKLETEEERLVCSREIFDTYIMKELLACSHPFSKSAIEHVQGHLVKKQVPPDLFQPYIEEICQNLRGDVFQKFIESDKFTRFCQWKNVELNIHLTMNDFSVHRIIGRGGFGEVYGCRKADTGKMYAMKCLDKKRIKMKQGETLALNERIMLSLVSTGDCPFIVCMSYAFHTPDKLSFILDLMNGGDLHYHLSQHGVFSEADMRFYAAEIILGLEHMHNRFVVYRDLKPANILLDEHGHVRISDLGLACDFSKKKPHASVGTHGYMAPEVLQKGVAYDSSADWFSLGCMLFKLLRGHSPFRQHKTKDKHEIDRMTLTMAVELPDSFSPELRSLLEGLLQRDVNRRLGCLGRGAQEVKESPFFRSLDWQMVFLQKYPPPLIPPRGEVNAADAFDIGSFDEEDTKGIKLLDSDQELYRNFPLTISERWQQEVAETVFDTINAETDRLEARKKTKNKQLGHEEDYALGKDCIMHGYMSKMGNPFLTQWQRRYFYLFPNRLEWRGEGEAPQSLLTMEEIQSVEETQIKERKCLLLKIRGGKQFVLQCDSDPELVQWKKELRDAYREAQQLVQRVPKMKNKPRSPVVELSKVPLIQRGSANGL",Km,[6],5.3 µM
